Results: patent publication US12459951B2, “Compounds that interact with RAS superfamily proteins for treatment of cancers, inflammatory diseases, rasopathies, and fibrotic disease” (SHY Therapeutics, LLC, priority 2022, dated 2025)

Key:
KRas wild type = test: Ras GTP Binding Domain Inhibition Assay (Ras Superfamily Assay); details: for KRas wild type + SOS: % inh.: with SOS; for KRas wild type: % inh.: without SOS
Procedure, shortened: (§1)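 Binding of 100 nM fluorescent GTP (Cy3 or Cy5, 45 min, room temperature) was read after washes from plate-captured His-tagged protein. Beforehand, compounds at 20 μM or in dilution series for IC50 sat 3 h on the protein in Tris buffer pH 7.4 or 7.0 with 1% DMSO, Sos GEF optionally added for the last hour.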

Rac-1 = biological target: T1, Rac-1 (Homo sapiens, UniProt P63000); test: as above; details: read-out: Rac-1: % inh.
T1 construct: made in house
Procedure, shortened: as §1

KRas G12D mutant = test: as above; details: for KRas G12D mutant + SOS: % inh.: with SOS; for KRas G12D mutant: % inh.: without SOS
Procedure, shortened: as §1

TNF-alpha = TNF-alpha Quantification Assay (ELISA), LPS-stimulated RAW 264.7; assay type: cell-based; details: Mus musculus, RAW264.7; at 10 μM; read-out: TNFα: % inh.
MAPK p38 phosphorylation = test: MAPK p38 Activation Assay (western blot), Panc-1; assay type: cell-based, human; details: at 10 μM, Panc-1 pancreatic cancer cell line; starred symbols = activation
Procedure, shortened: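 Panc-1 cells (KRas G12D) were treated with compound for 6 h at 37 °C, at 10 μM or as serial dilutions for IC50, with 0.3% DMSO. Method 1 used overnight serum-starved cells (0.5% FBS) stimulated with 1.5 ng/ml EGF for 15 min; Method 2 used unstimulated cells in 10% FBS. Phospho-p38 (Thr180/Tyr182) was detected by western blot.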

SMILES | KRas wild type + SOS: % inh. (KRas wild type; at 20 μM) | KRas wild type: % inh. (KRas wild type; at 20 μM) | inhibition at 20 µM (Rac-1) | KRas G12D mutant + SOS: % inh. (KRas G12D mutant; at 20 μM) | KRas G12D mutant: % inh. (KRas G12D mutant; at 20 μM) | inhibition at 10 µM (TNF-alpha) | % inh of MAPK p38 in Panc-1 (MAPK p38 phosphorylation) | KRas wild type + SOS: % inh. (KRas wild type; 20 μM compound) | KRas wild type: % inh. (KRas wild type; 20 μM compound) | KRas G12D mutant + SOS: % inh. (KRas G12D mutant; 20 μM compound) | KRas G12D mutant: % inh. (KRas G12D mutant; 20 μM compound)
CO[C@H]1C[C@H](Nc2nc(-c3nccn3C)nn3cc(-c4ccccc4)c(-c4ccccc4)c23)C1 [Compound 203, N-((1r,3r)-3-Methoxycyclobutyl)-2-(1-methyl-1H-imidazol-2-yl)-5,6-diphenylpyrrolo[2,1-f][1,2,4]triazin-4-amine] | 0 (0 = 0% inhibition) | 0 (0 = 0% inhibition) | 1 to 25% | 0 (0 = 0% inhibition) | 0 (0 = 0% inhibition) | 75 to 100% | G (G = 75-99% inhibition) |  |  |  | 
COc1ccnc(Nc2nc(-c3nccn3C)nn3cc(-c4c(F)cccc4OC)c(-c4ccccc4)c23)c1 [Compound 217, 6-(2-Fluoro-6-methoxyphenyl)-N-(4-methoxypyridin-2-yl)-2-(1-methyl-1H-imidazol-2-yl)-5-phenylpyrrolo[2,1-f][1,2,4]triazin-4-amine] | B (B = 26-49% inhibition) | C (C = 50-75% inhibition) | 50 to 75% | B (B = 26-49% inhibition) | C (C = 50-75% inhibition) | 25 to 49% | F (F = 31-74% inhibition) |  |  |  | 
COc1cccc(-c2cn3nc(-c4nccn4C)nc(N[C@H]4C[C@H](OC)C4)c3c2-c2ccccc2)c1C [Compound 209, 6-(3-methoxy-2-methylphenyl)-N-((1r,3r)-3-methoxycyclobutyl)-2-(1-methyl-1H-imidazol-2-yl)-5-phenylpyrrolo[2,1-f][1,2,4]triazin-4-amine] | 0 (0 = 0% inhibition) | A (A = 1-25% inhibition) | 26 to 49% | A (A = 1-25% inhibition) | A (A = 1-25% inhibition) | 75 to 100% | H (H = 100% inhibition) |  |  |  | 
COCC1CCN(c2nc(-c3ccccn3)nn3cc(-c4ccn(C(C)C)n4)c(C)c23)C1 (racemic) [Compound 10, rac 6-(1-Isopropyl-1H-pyrazol-3-yl)-4-(3-(methoxymethyl)pyrrolidin-1-yl)-5-methyl-2-(pyridin-2-yl)pyrrolo[2,1-f][1,2,4]triazine] |  |  | 1 to 25% |  |  | 0% | G* (G* = 75-99% activation) | 0 (0 = 0% inhibition) | A (A = 1-25% inhibition) | 0 (0 = 0% inhibition) | A (A = 1-25% inhibition)
COC1CCCN(c2nc(-c3ccccn3)nn3cc(-c4ccn(C(C)C)n4)c(C)c23)C1 (racemic) [Compound 12, rac 6-(1-Isopropyl-1H-pyrazol-3-yl)-4-(3-methoxypiperidin-1-yl)-5-methyl-2-(pyridin-2-yl)pyrrolo[2,1-f][1,2,4]triazine] |  |  | 0% |  |  | 0% | H* (H* ≥ 100% activation) | 0 (0 = 0% inhibition) | 0 (0 = 0% inhibition) | 0 (0 = 0% inhibition) | A (A = 1-25% inhibition)
CO[C@@H]1C[C@H]1Nc1nc(-c2nccn2C)nn2cc(-c3cccnc3)c(-c3ccccc3)c12 (racemic) [Compound 190, N-((1R,2R)-2-Methoxycyclopropyl)-2-(1-methyl-1H-imidazol-2-yl)-5-phenyl-6-(pyridin-3-yl)pyrrolo[2,1-f][1,2,4]triazin-4-amine] | B (B = 26-49% inhibition) | A (A = 1-25% inhibition) | 26 to 49% | B (B = 26-49% inhibition) | B (B = 26-49% inhibition) | 1 to 24% | E (E = 1-30% inhibition) |  |  |  | 
COc1ccnc(Nc2nc(-c3nccn3C)nn3cc(-c4ccn(CCNC(=O)CCCC[C@H]5SC[C@H]6NC(=O)N[C@H]65)n4)c(C)c23)c1 [Compound 215, N-(2-(3-(4-((4-methoxypyridin-2-yl)amino)-5-methyl-2-(1-methyl-1H-imidazol-2-yl)pyrrolo[2,1-f][1,2,4]triazin-6-yl)-1H-pyrazol-1-yl)ethyl)-5-((3aR,4R,6aS)-2-oxohexahydro-1H-thieno[3,4-d]imidazol-4-yl)pentanamide] | D (D = 76-100% inhibition) | D (D = 76-100% inhibition) | 76 to 100% | D (D = 76-100% inhibition) | D (D = 76-100% inhibition) | 25 to 49% | F (F = 31-74% inhibition) |  |  |  | 
Cn1ccnc1-c1nc(NS(C)(=O)=O)c2c(-c3ccccc3)c(-c3ccccc3)cn2n1 [Compound 212, N-(2-(1-Methyl-1H-imidazol-2-yl)-5,6-diphenylpyrrolo[2,1-f][1,2,4]triazin-4-yl) methanesulfonamide] | D (D = 76-100% inhibition) | C (C = 50-75% inhibition) | 50 to 75% | D (D = 76-100% inhibition) | C (C = 50-75% inhibition) | 0% | F (F = 31-74% inhibition) |  |  |  | 
CO[C@@H]1C[C@H]1Nc1nc(-c2nccn2C)nn2cc(-c3ccncc3)c(-c3ccccc3)c12 (racemic) [Compound 197, rac N-((1R,2R)-2-methoxycyclopropyl)-2-(1-methyl-1H-imidazol-2-yl)-5-phenyl-6-(pyridin-4-yl)pyrrolo[2,1-f][1,2,4]triazin-4-amine] | A (A = 1-25% inhibition) | 0 (0 = 0% inhibition) | 1 to 25% | A (A = 1-25% inhibition) | A (A = 1-25% inhibition) | 25 to 49% | F (F = 31-74% inhibition) |  |  |  | 
CO[C@H]1CC[C@@H](Nc2nc(-c3nccn3C)nn3cc(-c4cccnc4)c(-c4ccccc4)c23)C1 (racemic) [Compound 193, rac N-((1R,3S)-3-Methoxycyclopentyl)-2-(1-methyl-1H-imidazol-2-yl)-5-phenyl-6-(pyridin-3-yl)pyrrolo[2,1-f][1,2,4]triazin-4-amine] | A (A = 1-25% inhibition) | A (A = 1-25% inhibition) | 1 to 25% | A (A = 1-25% inhibition) | A (A = 1-25% inhibition) | 25 to 49% | E (E = 1-30% inhibition) |  |  |  | 
Cc1c(-c2ccn(C)n2)cn2nc(-c3nccn3C)nc(Nc3cc4c(cn3)CCO4)c12 [Compound 221, N-(5-Methyl-2-(1-methyl-1H-imidazol-2-yl)-6-(1-methyl-1H-pyrazol-3-yl)pyrrolo[2,1-f][1,2,4]triazin-4-yl)-2,3-dihydrofuro[3,2-c]pyridin-6-amine] | D (D = 76-100% inhibition) | D (D = 76-100% inhibition) | 76 to 100% | D (D = 76-100% inhibition) | D (D = 76-100% inhibition) | 0% | E (E = 1-30% inhibition) |  |  |  | 
CO[C@H]1C[C@H](Nc2nc(-c3nccn3C)nn3cc(-c4cccnc4)c(-c4ccccc4)c23)C1 [Compound 192, N-((1r,3r)-3-Methoxycyclobutyl)-2-(1-methyl-1H-imidazol-2-yl)-5-phenyl-6-(pyridin-3-yl)pyrrolo[2,1-f][1,2,4]triazin-4-amine] | B (B = 26-49% inhibition) | B (B = 26-49% inhibition) | 1 to 25% | B (B = 26-49% inhibition) | B (B = 26-49% inhibition) | 25 to 49% | E* (E* = 1-30% activation) |  |  |  | 
CO[C@H]1C[C@H](Nc2nc(-c3nccn3C)nn3cc(-c4cccc5c4CCO5)c(-c4ccccc4)c23)C1 [Compound 210, 6-(2,3-Dihydrobenzofuran-4-yl)-N-((1r,3r)-3-methoxycyclobutyl)-2-(1-methyl-1H-imidazol-2-yl)-5-phenylpyrrolo[2,1-f][1,2,4]triazin-4-amine] | 0 (0 = 0% inhibition) | A (A = 1-25% inhibition) | 1 to 25% | A (A = 1-25% inhibition) | A (A = 1-25% inhibition) | 75 to 100% | G (G = 75-99% inhibition) |  |  |  | 
COc1ccnc(Nc2nc(-c3nccn3CCN)nn3cc(-c4ccn(C)n4)c(C)c23)c1 [Compound 188, 2-(1-(2-Aminoethyl)-1H-imidazol-2-yl)-N-(4-methoxypyridin-2-yl)-5-methyl-6-(1-methyl-1H-pyrazol-3-yl)pyrrolo[2,1-f][1,2,4]triazin-4-amine] | D (D = 76-100% inhibition) | D (D = 76-100% inhibition) | 76 to 100% | D (D = 76-100% inhibition) | D (D = 76-100% inhibition) | 0% | E (E = 1-30% inhibition) |  |  |  | 
